Measured values reported in US20030224978A1, “Compounds and methods for modulating apoptosis” (McGill University, priority 1996, published 2003).
Entries after “also recorded” stand apart in the source; their conditions may differ. Positions of bridges follow the written chain, without caps; N, C: chain ends. Residues, ends and D or L forms follow the SMILES beside them.

How the values were obtained:
[1] = target: T1, chick N-cadherin (Gallus gallus, UniProt P10288); assay: N-cadherin dependent neurite outgrowth of rat cerebellar neurons on N-cadherin expressing 3T3 cells (Example 14); format: cell-based; conditions: for inhibitory activity on N-cadherin dependent neurite outgrowth, in words: Tables 8 and 9, 250 or 125 μg/mL
T1 construct: expressed in transfected cells; host or cells: 3T3 fibroblasts
T1 sequence (P10288 165-912): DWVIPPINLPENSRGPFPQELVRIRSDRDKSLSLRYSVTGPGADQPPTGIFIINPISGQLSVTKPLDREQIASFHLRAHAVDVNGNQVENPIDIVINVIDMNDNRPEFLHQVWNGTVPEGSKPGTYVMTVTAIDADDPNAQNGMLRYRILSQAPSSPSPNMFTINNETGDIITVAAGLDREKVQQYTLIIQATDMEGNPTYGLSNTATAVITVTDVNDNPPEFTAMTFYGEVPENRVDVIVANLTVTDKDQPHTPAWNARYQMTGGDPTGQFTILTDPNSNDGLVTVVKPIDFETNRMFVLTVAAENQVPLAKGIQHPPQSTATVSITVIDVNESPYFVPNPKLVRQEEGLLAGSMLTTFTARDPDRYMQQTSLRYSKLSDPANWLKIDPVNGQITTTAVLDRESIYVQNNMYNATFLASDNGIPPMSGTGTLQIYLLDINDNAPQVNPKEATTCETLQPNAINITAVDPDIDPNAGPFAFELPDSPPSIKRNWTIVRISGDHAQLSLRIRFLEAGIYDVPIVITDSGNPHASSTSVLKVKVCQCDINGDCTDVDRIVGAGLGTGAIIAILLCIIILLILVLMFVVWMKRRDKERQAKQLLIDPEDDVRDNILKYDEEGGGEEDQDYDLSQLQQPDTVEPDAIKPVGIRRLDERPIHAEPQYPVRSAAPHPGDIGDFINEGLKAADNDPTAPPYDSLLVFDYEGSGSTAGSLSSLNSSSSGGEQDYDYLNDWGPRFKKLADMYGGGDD

[2] = test system: PC-3; format: cell-based, human; conditions: 3 h
Procedure: (§1) N-Ac-CHAVC-NH2 (SEQ ID NO:10) and the control peptide N-Ac-CHGVC-NH2 (SEQ ID NO:20) were evaluated for possible cytotoxic effects on human microvascular endothelial (HMVEC; Clonetics), human umbilical vein endothelial (HUVEC; ATCC #CRL-1730), IAFp2 (human fibroblast cell line; Institute Armand-Frapier, Montreal, Quebec), WI-38 (human fibroblast cell line; ATCC #CCL-75), MDA-MB231 (human breast cancer cell line; ATCC #HTB-26), and PC-3 (human prostate cancer cell line; ATCC #CRL-1435) cells utilizing the MTT assay (Plumb et al., Cancer Res. 49:4435-4440, 1989). Neither of the peptides was cytotoxic at concentrations up to and including 100 μM. Similarly, neither of the peptides was capable of inhibiting the proliferation of the above cell lines at concentrations up to 100 μM, as judged by ^3H-thymidine incorporation assays.

[3] = test system: IAFp2; format: cell-based, human; conditions: 3 h
Procedure: as §1

[4] = test system: HMVEC; format: cell-based, human; conditions: 3 h
Procedure: as §1

[5] = test system: WI-38; format: cell-based, human; conditions: 3 h
Procedure: as §1

Row | Compound | inhibition at 250 µg/mL ([1]; NIH3T3, 250 μg/mL, 16-18 hours) | inhibitory activity on N-cadherin dependent neurite outgrowth, in words [1] | activity on N-cadherin dependent neurite outgrowth at lower concentration, in words ([1]; concentrations of 125 µg/mL or below) | IC50 [2] | IC50 [3] | IC50 [4] | IC50 [5] | % Inhibition of N-cadherin dependent neurite outgrowth ([1]; 250 μg/mL, 16-18 hours) | inhibition at 125 µg/mL ([1]; NIH3T3, 125 μg/mL, 16-18 hours) | effect on the N-cadherin response, in words ([1]; concentrations up to 62 μg/ml) | EC50 ([1]; from dose-response curve) | reduction in inhibitory activity on flanking HAV with E-cadherin amino acids ([1]; Table 8, 250 μg/mL)
1 | CC[C@H](C)[C@@H]1NC(=O)[C@H](CC(=O)O)NC(=O)[C@H](C(C)C)NC(=O)[C@H](C)NC(=O)[C@H](Cc2c[nH]cn2)NC(=O)[C@H](C)NC(=O)[C@@H](NC(C)=O)CSSC[C@@H](C(N)=O)NC1=O (Ac-CAHAVDIC-NH2; disulfide 1-8) | 89.4% | reduced, but did not eliminate, the activity; also recorded: potent inhibitors of neurite outgrowth | lost activity |  |  |  |  |  |  |  |  | 
2 | CC(=O)N[C@H]1CSSC[C@@H](C(N)=O)NC(=O)[C@H](CC(=O)O)NC(=O)[C@H](C(C)C)NC(=O)[C@H](C)NC(=O)[C@H](Cc2c[nH]cn2)NC(=O)[C@H](C)NC1=O [N-Ac-CAHAVDC-NH2, N-Ac-Cys-Ala-His-Ala-Val-Asp-Cys-NH2] (Ac-CAHAVDC-NH2; disulfide 1-7) | 13.3 ± 8.3% | completely eliminated inhibitory activity |  |  |  |  |  |  |  |  |  | 
3 | CC(=O)N[C@H]1CSSC[C@@H](C(N)=O)NC(=O)[C@H](C(C)C)NC(=O)[C@H](C)NC(=O)[C@H](Cc2c[nH]cn2)NC1=O [N-Ac-CHAVC-NH2, N-Ac-Cys-His-Ala-Val-Cys-NH2] | 68.2% |  |  | > 100 µM | > 100 µM | > 100 µM | > 100 µM | 68.2 ± 5.1 (4) % | 33.2% | no significant effect on the N-cadherin response | 220 µM | 
4 | CC(=O)N[C@H]1CSSC[C@@H](C(N)=O)NC(=O)[C@H](CO)NC(=O)[C@H](C(C)C)NC(=O)[C@H](C)NC(=O)[C@H](Cc2c[nH]cn2)NC1=O [N-Ac-CHAVSC-NH2, N-Ac-Cys-His-Ala-Val-Ser-Cys-NH2] (Ac-CHAVSC-NH2; disulfide 1-6) | -2.5 ± 7.4% |  |  |  |  |  |  |  |  |  |  | complete
5 | CC(=O)N[C@H]1CSSC[C@@H](C(N)=O)NC(=O)[C@H](C(C)C)NC(=O)CNC(=O)[C@H](Cc2c[nH]cn2)NC1=O [N-Ac-CHGVC-NH2, reference compound] | 4.8 ± 5.3% |  |  | > 100 µM | > 100 µM | > 100 µM | > 100 µM |  |  |  |  | 
